In patent US5750702A (priority 1996, dated 1998) one finds Ki data, which are given here for 20 molecules.

Molecules are shown by their SMILES.

In one assay the target is GABAa receptor. As to the kind of experiment: GABAa receptor binding assay (displacement of 3H-RO15-1788 [3H-Flumazenil], rat cortical tissue). The note with it: Table 2, 0.5 nM 3H-RO15-1788, 30 min at 4° C., nonspecific binding with diazepam. How it is done:
The pharmaceutical utility of compounds of this invention are indicated by the following assay for GABAa receptor binding activity.
Assays are carried out as described in Thomas and Tallman (J. Bio. Chem. 156: 9838-9842 J. Neurosci. 3: 433-440, 1983). Rat cortical tissue is dissected and homogenized in 25 volumes (w/v) of 0.05M Tris HCl buffer (pH 7.4 at 4° C.). The tissue homogenate is centrifuged in the cold (4°) at 20,000×g for 20'. The supernatant is decanted and the pellet is rehomogenized in the same volume of buffer and again centrifuged at 20,000×g. The supernatant is decanted and the pellet is frozen at -20° C. overnight. The pellet is then thawed and rehomogenized in 25 volume (original wt/vol) of buffer and the procedure is carried out twice. The pellet is finally resuspended in 50 volumes (w/vol of 0.05M Tris HCl buffer (pH 7.4 at […]).
Incubations contain […] of tissue homogenate, […] of radioligand 0.5 nM (^3 H-RO15-1788 [^3 H-Flumazenil] specific activity 80 Ci/mmol), drug or blocker and buffer to a total volume of […]. Incubations are carried for 30 min at 4° C. then are rapidly filtered through GFB filters to separate free and bound ligand. Filters are washed twice with fresh 0.05M Tris HCl buffer (pH 7.4 at 4° C.) and counted in a liquid scintillation counter. 1.0 mM diazepam is added to some tubes to determine nonspecific binding. Data are collected in triplicate determinations, averaged and % inhibition of total specific binding is calculated. Total Specific Binding=Total-Nonspecific. In some cases, the amounts of unlabeled drugs is varied and total displacement curves of binding are carried out. Data are converted to Ki values.
On the technique in general: Displacement assays read how much labelled ligand stays bound in the presence of the test substance.
Usually Ki stands for a measure of affinity in units of concentration, obtained from inhibition or displacement. A low value points to a stronger hold on the target. The molecule `COc1ccc(NC(=O)c2c[nH]c3cccc(OCc4ccccc4)c23)c(F)c1` [Compound 14, N-(2-Fluoro-4-methoxyphenyl)-4-benzyloxy-1H-indole-3-carboxamide] came in with a Ki of 133 nM.
On the same count and under the same terms, for `COc1ccc(NC(=O)c2c[nH]c3c2C(=O)CCC3)cc1` [Compound 1, N-(4-methoxyphenyl)-4-oxo-4,5,6,7-tetrahydro-1H-indole-3-carboxamide] the value was 4 nM; for `COc1ccc(NC(=O)c2c[nH]c3cccc(O)c23)c(F)c1` [Compound 2, N-(2-fluoro-4-methoxyphenyl)-4-hydroxy-1H-indole-3-carboxamide], 430 nM.
On the same count and under the same terms, next, `COc1ccc(NC(=O)c2c[nH]c3cccc(OC)c23)cc1` [Compound 8, N-(4-Methoxyphenyl)-4-methoxy-1H-indole-3-carboxamide]: 25 nM.
Molecule `CC(=O)Nc1ccc(NC(=O)c2c[nH]c3c2C(=O)CCC3)cc1` [Compound 12, N-(4-Acetamidophenyl)-4-oxo-4,5,6,7-tetrahydro-1H-indole-3-carboxamide] yielded a Ki of 28 nM.
On the same count and under the same terms, next, `COc1ccc(NC(=O)c2c[nH]c3c2C(=O)CCC3)c(F)c1` [Compound 6, N-(2-Fluoro-4-methoxyphenyl)-4-oxo-4,5,6,7-tetrahydro-1H-indole-3-carboxamide]: 1 nM.

The assay is the same for the next values; noted with them: Table 3, 0.5 nM 3H-RO15-1788, 30 min at 4° C., nonspecific binding with diazepam.
Molecule `CCOc1ccc(NC(=O)c2c[nH]c3c2C(=O)CCCC3)c(F)c1` [Compound 102, N-(2-Fluoro-4-ethoxyphenyl)-4-oxo-1,4,5,6,7,8-hexahydro-cyclohepta[b]pyrrole-3-carboxamide] yielded a Ki of 37 nM.
The same measure, in the same setting: next, `COc1ccc(NC(=O)c2c[nH]c3c2C(=O)CCC3)cc1F` [Compound 26, N-(3-Fluoro-4-methoxyphenyl)-4-oxo-4,5,6,7-tetrahydro-1H-indole-3-carboxamide]: 3 nM.
Same read-out and setting: next, `O=C(Nc1ccccc1O)c1c[nH]c2c1C(=O)CCC2` [Compound 62, N-(2-Hydroxyphenyl)-4-oxo-4,5,6,7-tetrahydro-1H-indole-3-carboxamide]: 0.8 nM; `CC(C)Oc1ccc(NC(=O)c2c[nH]c3c2C(=O)CCC3)cc1` [Compound 22, N-(4-Isopropoxyphenyl)-4-oxo-4,5,6,7-tetrahydro-1H-indole-3-carboxamide]: 53 nM.
The molecule `O=C(Nc1ccccc1)c1c[nH]c2c1C(=O)CCC2` [Compound 35, N-Phenyl-4-oxo-4,5,6,7-tetrahydro-1H-indole-3-carboxamide] yielded an inhibition constant Ki of 2 nM.
Still for that read-out and setting: for `Cc1ccc(NC(=O)c2c[nH]c3c2C(=O)CCC3)c(F)c1` [Compound 72, N-(2-Fluoro-4-methylphenyl)-4-oxo-4,5,6,7-tetrahydro-1H-indole-3-carboxamide] the value was 26 nM; for `CC1(C)CCc2[nH]cc(C(=O)Nc3ccc(O)cc3)c2C1=O` [Compound 86, N-(4-Hydroxyphenyl)-4-oxo-5,5-dimethyl-4,5,6,7-tetrahydro-1H-indole-3-carboxamide], 2 nM.
The same measure, in the same setting: for `CC1(C)CCc2[nH]cc(C(=O)Nc3ccccc3)c2C1=O` [Compound 80, N-Phenyl-4-oxo-5,5-dimethyl-4,5,6,7-tetrahydro-1H-indole-3-carboxamide] the value was 31 nM; for `O=C(Nc1ccccc1F)c1c[nH]c2c1C(=O)CCCC2` [Compound 93, N-(2-Fluorophenyl)-4-oxo-1,4,5,6,7,8-hexahydro-cyclohepta[b]pyrrole-3-carboxamide], 6 nM.
The same measure, in the same setting: for `CNc1ccc(NC(=O)c2c[nH]c3c2C(=O)CCC3)cc1` [Compound 74, N-[4-(Methylamino)phenyl]-4-oxo-4,5,6,7-tetrahydro-1H-indole-3-carboxamide] the value was 18 nM.
The molecule `COc1ccc(NC(=O)c2c[nH]c3c2C(=O)C(C)(C)CC3)c(F)c1` [Compound 30, N-(2-Fluoro-4-methoxyphenyl)-4-oxo-5,5-dimethyl-4,5,6,7-tetrahydro-1H-indole-3-carboxamide] displayed a Ki of 10 nM.
The same measure, in the same setting: next, `CC1(C)CCc2[nH]cc(C(=O)Nc3ccccc3F)c2C1=O` [Compound 81, N-(2-Fluorophenyl)-4-oxo-5,5-dimethyl-4,5,6,7-tetrahydro-1H-indole-3-carboxamide]: 14 nM; `O=C(Nc1ccccc1F)c1c[nH]c2c1C(=O)CCC2` [Compound 46, N-(2-Fluorophenyl)-4-oxo-4,5,6,7-tetrahydro-1H-indole-3-carboxamide]: 3 nM; `COc1cccc(NC(=O)c2c[nH]c3c2C(=O)CCCC3)c1` [Compound 96, N-(3-Methoxyphenyl)-4-oxo-1,4,5,6,7,8-hexahydro-cyclohepta[b]pyrrole-3-carboxamide]: 29 nM.
